According to article PMC12389534, “Unlocking Therapeutic Potential of Novel Thieno-Oxazepine Hybrids as Multi-Target Inhibitors of AChE/BChE and Evaluation Against Alzheimer’s Disease: In Vivo, In Vitro, Histopathological, and Docking Studies” (Pharmaceuticals, 2025):

Assays:
BACE1 = assay: Brain BACE1 level (ELISA); format: in vivo, rat; design: reduction of BACE1 levels: concentration or dose not given beside the values; conditions: AlCl3-induced AD rats; for BACE1 (ng/mL): mean ± SE, n = 6
Procedure: (§1) The brain tissues of the rats were removed and rigorously washed in isotonic saline 24 h after they were euthanized following the last behavioral test. For histological investigation, four brains per group were preserved for the whole night in 10% neutral buffered formalin. The remaining six brains were split into two sections each. In order to create a 10% homogenate (w/v), the first component was instantaneously homogenized using an ice-cold solution that included 300 mM sucrose and 50 mM Tris-HCl (pH 7.4). The homogenate was centrifuged at 1800× g for 10 min at 4 °C for biochemical tests, and the supernatant was thereafter kept at −20 °C. The second portion was set aside for use in RT-PCR analysis at −80 °C [94]. […]

Amyloid-β = assay: Brain amyloid-β level (ELISA); format: in vivo, rat; design: reduction of β-amyloid levels: concentration or dose not given beside the values; conditions: AlCl3-induced AD rats; for Amyloid-β (ng/g Tissue): brain, mean ± SE, n = 6
Procedure: (§2) The brain tissues of the rats were removed and rigorously washed in isotonic saline 24 h after they were euthanized following the last behavioral test. For histological investigation, four brains per group were preserved for the whole night in 10% neutral buffered formalin. The remaining six brains were split into two sections each. In order to create a 10% homogenate (w/v), the first component was instantaneously homogenized using an ice-cold solution that included 300 mM sucrose and 50 mM Tris-HCl (pH 7.4). The homogenate was centrifuged at 1800× g for 10 min at 4 °C for biochemical tests, and the supernatant was thereafter kept at −20 °C. The second portion was set aside for use in RT-PCR analysis at −80 °C [94].
(§3) See Supplementary Information.

5-HT = assay: Brain 5-HT level (fluorometric); format: in vivo, rat; conditions: AlCl3-induced AD rats; for 5-HT (ng/g Tissue): brain tissue, mean ± SE, n = 6
Procedure: as §2
(§4) Brain monoamine levels were promptly assessed following the rats’ euthanasia to prevent changes in the substance’s concentration. Dopamine (DA), norepinephrine (NE), and serotonin (5-HT) fluorometric tests were conducted on brain tissue homogenate using the Ciarlone method. […] The concentrations were articulated as nanograms per gram of fresh tissue using the fluorescence of reference solutions [95].

DA = assay: Brain DA level (fluorometric); format: in vivo, rat; conditions: AlCl3-induced AD rats; for DA (ng/g Tissue): brain tissue, mean ± SE, n = 6
Procedure: as §2, §4

NE = assay: Brain NE level (fluorometric); format: in vivo, rat; conditions: AlCl3-induced AD rats; for NE (nmol/g Tissue): brain tissue, mean ± SE, n = 6
Procedure: as §2, §4

TNF-α = assay: Brain TNF-α level (ELISA); format: in vivo, rat; conditions: AlCl3-induced AD rats; for TNF-α (pg/g Tissue): mean ± SE, n = 6
Procedure: as §1

TLR4 = TLR4 mRNA expression (RT-qPCR); format: in vivo, rat; design: reduction of TLR4 mRNA expression: concentration or dose not given beside the values; conditions: AlCl3-induced AD rats; for TLR4: mRNA expression level, mean ± SE, n = 6
Procedure: as §2, §3

NFκβ = NFκβ mRNA expression (RT-qPCR); format: in vivo, rat; design: reduction of NFκβ mRNA expression: concentration or dose not given beside the values; conditions: AlCl3-induced AD rats; for NFκβ: mRNA expression level, mean ± SE, n = 6
Procedure: as §2, §3

Caspase-1 = Caspase-1 gene expression (RT-qPCR); format: in vivo, rat; design: reduction of Caspase-1 levels: concentration or dose not given beside the values; conditions: AlCl3-induced AD rats; for Caspase-1: gene expression, mean ± SE, n = 6
Procedure: as §2, §3

Bcl-2 = Bcl-2 gene expression (RT-qPCR); format: in vivo, rat; conditions: AlCl3-induced AD rats; for Bcl-2: gene expression, mean ± SE, n = 6
Procedure: as §2, §3

GSK3β = GSK3β gene expression (RT-qPCR); format: in vivo, rat; conditions: AlCl3-induced AD rats; for GSK3β: gene expression, mean ± SE, n = 6
Procedure: as §2, §3

SOD = assay: Brain SOD activity (colorimetric); format: in vivo, rat; conditions: brain tissue, AlCl3-induced AD rats; mean ± SE, n = 6
Procedure: as §2
(§5) The SOD enzyme activity was estimated using the Marklund et al. method, which is founded on the enzyme’s capacity to decrease the nitro blue tetrazolium dye at a wavelength of 540 nm. To evaluate the TAC, a colorimetric approach was employed to estimate the amount of hydrogen peroxide that remains after 3,5-dichloro-2-hydroxybenzene sulphonate is converted to a colored product at 660 nm.

TAC = assay: Brain TAC (colorimetric); format: in vivo, rat; conditions: AlCl3-induced AD rats; for TAC (µmol/g Tissue): brain tissue, mean ± SE, n = 6
Procedure: as §2, §5

Nrf-2 = Nrf-2 mRNA expression (RT-qPCR); format: in vivo, rat; conditions: AlCl3-induced AD rats; for Nrf-2: mRNA expression in brain tissue, mean ± SE, n = 6
Procedure: as §2, §3

HO-1 = HO-1 mRNA expression (RT-qPCR); format: in vivo, rat; conditions: AlCl3-induced AD rats; for HO-1: mRNA expression in brain tissue, mean ± SE, n = 6
Procedure: as §2, §3

BChE = target: T1, BChE (Homo sapiens, UniProt P06276); assay: biochemical; conditions: for IC50: fluorescence kit, triplicate; for Selectivity Index BChE/AChE: ratio of IC50 BChE to IC50 AChE, <1 = preferential BChE inhibition
T1 construct: purchased Invitrogen EIABCHEF
T1 sequence (P06276 29-602): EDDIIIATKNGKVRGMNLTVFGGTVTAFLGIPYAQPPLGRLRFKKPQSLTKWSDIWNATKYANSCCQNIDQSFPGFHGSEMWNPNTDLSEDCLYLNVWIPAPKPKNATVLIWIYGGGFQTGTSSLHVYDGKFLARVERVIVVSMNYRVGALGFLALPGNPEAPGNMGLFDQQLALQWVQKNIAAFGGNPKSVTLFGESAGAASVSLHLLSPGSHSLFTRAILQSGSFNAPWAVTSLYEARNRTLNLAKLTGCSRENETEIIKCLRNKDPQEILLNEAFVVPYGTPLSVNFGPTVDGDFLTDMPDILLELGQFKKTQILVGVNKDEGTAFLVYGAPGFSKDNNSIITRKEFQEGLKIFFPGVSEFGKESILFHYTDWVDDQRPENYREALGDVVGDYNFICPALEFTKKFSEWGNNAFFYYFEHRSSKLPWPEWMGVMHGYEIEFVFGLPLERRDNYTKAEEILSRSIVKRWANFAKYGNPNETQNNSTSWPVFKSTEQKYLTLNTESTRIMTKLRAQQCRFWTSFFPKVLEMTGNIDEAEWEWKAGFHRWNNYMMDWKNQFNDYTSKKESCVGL
Procedure: Using an Invitrogen BChE test kit (Catalog #EIABCHEF), the assay was performed in compliance with the supplier’s instructions. The study was conducted using black 96-well plates. […] Each well was then filled with 50 μL of the reaction mixture, which consisted of fluorescence detection reagent and butyrylthiocholine iodide in assay buffer. The plate was then left to incubate for 20 min at room temperature. Finally, excitation at 390 nm was used to observe emission at 510 nm using a microplate reader. Background fluorescence was further eliminated for each data point.

Row | Structure (SMILES) | reduction of BACE1 levels (BACE1) [%] | BACE1 (ng/mL) (BACE1) | reduction of β-amyloid levels (Amyloid-β) [%] | Amyloid-β (ng/g Tissue) (Amyloid-β) | elevation of 5-HT levels (5-HT) [fold] | 5-HT (ng/g Tissue) (5-HT) | elevation of DA levels (DA) [fold] | DA (ng/g Tissue) (DA) | rise in the level of NE (NE) [times] | NE (nmol/g Tissue) (NE) | decline in TNF-α levels (TNF-α) [%] | TNF-α (pg/g Tissue) (TNF-α) | reduction of TLR4 mRNA expression (TLR4) [%] | TLR4 (TLR4) | reduction of NFκβ mRNA expression (NFκβ) [%] | NFκβ (NFκβ) | reduction of Caspase-1 levels (Caspase-1) [%] | Caspase-1 (Caspase-1) | upregulation of Bcl-2 gene expression (Bcl-2) [fold] | Bcl-2 (Bcl-2) | also measured
1 | O=C1CN(c2ccc(Cl)cc2)C(=O)c2c(sc3c2CCCCC3)O1 [Compound 12, 4-(4-Chlorophenyl)-3,4,7,8,9,10-hexahydro-6H-cyclohepta[4,5]thieno[3,2-f][1,4]oxazepine-2,5-dione] | 53.9 | 13.68 ± 0.2 ^abc ng/mL | 62.3 | 10.51 ± 0.1 ^abc ng/g Tissue | 2.8 | 5.07 ± 0.18 ^abc ng/g Tissue | 3.2 | 38.37 ± 2.86 ^abc ng/g Tissue | 2.2 | 420.5 ± 2.86 ^abc nmol/g Tissue | 62.5 | 65.98 ± 0.91 ^abc pg/g Tissue | 71.4 | 2.75 ± 0.06 ^abc | 49.2 | 4.30 ± 0.14 ^abc | 52.3 | 4.54 ± 0.090 ^abc | 6.8 | 0.82 ± 0.020 ^abc | reduction of GSK3β gene expression (GSK3β): 47.4%; GSK3β (GSK3β): 5.36 ± 0.07 ^abc; SOD(U/g) (SOD): 2.15 ± 0.39 ^abc U/g; improvement of TAC levels (TAC): approximately 3 times; TAC (µmol/g Tissue) (TAC): 29.33 ± 0.57 ^abc µmol/g Tissue; elevation of Nrf-2 mRNA expression (Nrf-2): 4 fold; Nrf-2 (Nrf-2): 0.64 ± 0.020 ^abc; elevation of HO-1 mRNA expression (HO-1): 5.7 fold; HO-1 (HO-1): 0.69 ± 0.020 ^abc; IC50 (BChE): 65.9 ± 2.27 µM; Selectivity Index BChE/AChE (BChE): 6.04
2 | O=C1CN(c2ccc(O)cc2)C(=O)c2c(sc3c2CCCCC3)O1 [Compound 15, 4-(4-Hydroxyphenyl)-3,4,7,8,9,10-hexahydro-6H-cyclohepta[4,5]thieno[3,2-f][1,4]oxa-zepine-2,5-dione] | 64.6 | 10.50 ± 0.2 ^abc ng/mL | 73.2 | 7.46 ± 0.9 ^abc ng/g Tissue | 3.7 | 6.77 ± 0.22 ^abc ng/g Tissue | 3.8 | 44.92 ± 2.85 ^abc ng/g Tissue | 2.7 | 499.8 ± 2.85 ^abc nmol/g Tissue | 74.6 | 44.6 ± 0.6 ^abc pg/g Tissue | 52.5 | 4.57 ± 0.09 ^abc | 64.8 | 2.98 ± 0.10 ^abc | 69.1 | 2.94 ± 0.110 ^abc | 7.1 | 0.86 ± 0.020 ^abc | reduction of GSK3β gene expression (GSK3β): 53.7%; GSK3β (GSK3β): 4.72 ± 0.05 ^abc; SOD(U/g) (SOD): 2.56 ± 0.54 ^abc U/g; improvement of TAC levels (TAC): ~3.3 times; TAC (µmol/g Tissue) (TAC): 31.67 ± 0.42 ^abc µmol/g Tissue; elevation of Nrf-2 mRNA expression (Nrf-2): 5.1 fold; Nrf-2 (Nrf-2): 0.82 ± 0.020 ^abc; elevation of HO-1 mRNA expression (HO-1): 6.7 fold; HO-1 (HO-1): 0.82 ± 0.005 ^abc; IC50 (BChE): 0.7 ± 0.02 µM; Selectivity Index BChE/AChE (BChE): 0.44
3 | N#Cc1ccc(N2CC(=O)Oc3sc4c(c3C2=O)CCCCC4)cc1 [Compound 13, 4-(2,5-Dioxo-2,3,7,8,9,10-hexahydro-6H-cyclohepta[4,5]thieno[3,2-f][1,4]oxazepin-4(5H)-yl)benzonitrile] | 61.7 | 11.35 ± 0.31 ^abc ng/mL | 67.6 | 9.04 ± 0.9 ^abc ng/g Tissue | 4.1 | 7.39 ± 0.1 ^abc ng/g Tissue | 4.1 | 48.65 ± 2.3 ^abc ng/g Tissue | 2.4 | 449.6 ± 2.3 ^abc nmol/g Tissue | 70.2 | 52.38 ± 0.59 ^abc pg/g Tissue | 57.5 | 4.09 ± 0.27 ^abc | 58.8 | 3.49 ± 0.07 ^abc | 59.5 | 3.85 ± 0.070 ^abc | 6.5 | 0.79 ± 0.020 ^abc | GSK3β (GSK3β): 3.63 ± 0.04 ^abc; SOD(U/g) (SOD): 2.53 ± 0.25 ^abc U/g; improvement of TAC levels (TAC): ~3.4 times; TAC (µmol/g Tissue) (TAC): 32.9 ± 1.22 ^abc µmol/g Tissue; elevation of Nrf-2 mRNA expression (Nrf-2): 4.8 fold; Nrf-2 (Nrf-2): 0.78 ± 0.010 ^abc; elevation of HO-1 mRNA expression (HO-1): 6.2 fold; HO-1 (HO-1): 0.75 ± 0.010 ^abc; IC50 (BChE): 4.22 ± 0.14 µM; Selectivity Index BChE/AChE (BChE): 0.84
